From article PMC8000041, “New Insights into the Metabolism of the Flavanones Eriocitrin and Hesperidin: A Comparative Human Pharmacokinetic Study” (Antioxidants, 2021)

Experiments:
[1] = Plasma metabolites and pharmacokinetics after single intake of lemon or orange extract (UPLC-ESI-QTOF-MS, non-compartmental analysis); format: in vivo, human; conditions: for Occurrence Plasma LE (number of volunteers in whom the metabolite was detected): after consuming lemon extract; for Occurrence Plasma LE (number of volunteers in whom the metabolite was detected) / Occurrence Plasma OE (number of volunteers in whom the metabolite was detected): n = 16 volunteers; for Occurrence Plasma OE (number of volunteers in whom the metabolite was detected): after consuming orange extract; for AUC(0-t) / Cmax / Tmax: after lemon extract, mean ± SD
From the text: Secondary endpoints involved the evaluation of post-prandial changes in several biomarkers dealing with metabolism, inflammation, and oxidative stress after a high-fat-high-sugars meal. The design was a randomized pharmacokinetic, double-blind, crossover, single-dose trial consisted of 2 test-phases. The volunteers were randomly allocated into two groups using a computerized random number list. Each group consumed one of the citrus extracts by following a test-phase that lasted for 1 day for blood sampling and urine collection, a 2-week washout period between each test phase, and crossover before consuming the other extract. The volunteers were instructed to avoid the consumption of flavanone-containing products, from a list provided by the researchers, for 1 week before the study and during the wash-out phase (citrus fruit juices, tomatoes, tomato-based sauces (like ‘ketchup’), peppers, almonds, etc.). […] The 3 capsules provided a total of 1.95 g orange extract, containing 260 mg hesperidin, and 3.1 g lemon extract, containing 260 mg eriocitrin. […] Plasma samples were obtained by centrifugation of peripheral venous blood at 14,000× g for 15 min at 4 °C and immediately frozen at −80 °C. Glucose, total cholesterol, HDL-cholesterol, LDL-cholesterol, triglycerides, insulin, homeostatic model assessment insulin resistance (HOMA-IR), gamma-glutamyl transferase (GGT), and alanine aminotransferase (ALT) were determined as previously reported. […] A previously validated method for analyzing phenolic metabolites in biological samples, including flavanone-derived metabolites, was used. […] After centrifugation at 14,000× g for 10 min at 4 °C, the supernatant was evaporated in a speed vacuum concentrator. Finally, samples were re-suspended in 100 µL of methanol, filtered through a 0.22 µm cellulose filters before analysis by UPLC- ESI-QTOF-MS. A targeted screening strategy was applied to identify metabolites that could be present after consuming the citrus extracts. Twenty-eight possible compounds were browsed in all the samples. The list of compounds included the polyphenols present in the extracts, with particular focus on the flavanone rutinosides hesperidin and eriocitrin, their respective aglycones hesperetin, and eriodictyol, as well as their derived phase-II conjugates (glucuronides, sulfates, sulfoglucuronides, etc.). The exact mass of each proposed compound was extracted using an extraction window of 0.01 m/z. The metabolites hesperetin 7-O-glucuronide, hesperetin 3′-O-glucuronide, hesperetin 3-O-sulfate, naringenin 4′-O-glucuronide, and naringenin 7′-O-glucuronide were quantified with their corresponding standards. […] The parent phenolic compounds were quantified with their corresponding standards. In the case of some relevant conjugated metabolites, which standards were not available (eriodictyol and homoeriodictyol conjugates), their quantification was achieved by using relative response factors (RRFs) as previously described. Briefly, RRFs are useful to check the different responses of metabolites in the mass spectrometer vs. their UV signal. While the ionization response of free vs. conjugated forms is usually very different, their UV signal response is quite similar. To this purpose, we injected in a HPLC-DAD-ESI-Q (MS) the plasma samples (n = 5) with the highest concentrations of those conjugated metabolites. Concentrations were calculated by integrating the area from their corresponding UV peaks and compared with the UV peak area of a known concentration of their corresponding available parent compounds (eriodictyol and homoeriodictyol). The concentrations calculated were used to compare the MS response for each conjugated-aglycone pair. Statistical analyses were carried out using the SPSS Software, version 23.0 (SPSS Inc., Chicago, IL, USA). Data are expressed as mean ± SD. The empirical distribution of data with the normality assumption was tested with the Shapiro-Wilk test. […]

[2] = Urinary excretion of flavanone-derived metabolites after single intake of lemon or orange extract (UPLC-ESI-QTOF-MS); format: in vivo, human; conditions: for Occurrence Urine LE (number of volunteers in whom the metabolite was detected): after consuming lemon extract; for Occurrence Urine LE (number of volunteers in whom the metabolite was detected) / Occurrence Urine OE (number of volunteers in whom the metabolite was detected): n = 16 volunteers; for Occurrence Urine OE (number of volunteers in whom the metabolite was detected): after consuming orange extract; for Urinary excretion F1: urine fraction 0-4 h; for Urinary excretion F1 / Urinary excretion Total F / Urinary excretion F2 / Urinary excretion F3 / Urinary excretion F4: mean ± SD; for Urinary excretion Total F: sum of fractions F1-F4 (24 h); for Urinary excretion F2: urine fraction 4-8 h; for Urinary excretion F3: urine fraction 8-10 h; for Urinary excretion F4: urine fraction 10-24 h
From the text: Secondary endpoints involved the evaluation of post-prandial changes in several biomarkers dealing with metabolism, inflammation, and oxidative stress after a high-fat-high-sugars meal. The design was a randomized pharmacokinetic, double-blind, crossover, single-dose trial consisted of 2 test-phases. The volunteers were randomly allocated into two groups using a computerized random number list. Each group consumed one of the citrus extracts by following a test-phase that lasted for 1 day for blood sampling and urine collection, a 2-week washout period between each test phase, and crossover before consuming the other extract. The volunteers were instructed to avoid the consumption of flavanone-containing products, from a list provided by the researchers, for 1 week before the study and during the wash-out phase (citrus fruit juices, tomatoes, tomato-based sauces (like ‘ketchup’), peppers, almonds, etc.). […] The 3 capsules provided a total of 1.95 g orange extract, containing 260 mg hesperidin, and 3.1 g lemon extract, containing 260 mg eriocitrin. […] Untreated urine samples were aliquoted and frozen at −80 °C for up to 4 weeks until analyses, avoiding freeze-thaw cycles to avoid metabolites’ deconjugation. Moreover, three measurements of blood pressure and heart rate were taken before each time-point of blood withdrawal. […] A previously validated method for analyzing phenolic metabolites in biological samples, including flavanone-derived metabolites, was used. […] After centrifugation at 14,000× g for 10 min at 4 °C, the supernatant was evaporated in a speed vacuum concentrator. Finally, samples were re-suspended in 100 µL of methanol, filtered through a 0.22 µm cellulose filters before analysis by UPLC- ESI-QTOF-MS. […] A targeted screening strategy was applied to identify metabolites that could be present after consuming the citrus extracts. Twenty-eight possible compounds were browsed in all the samples. The list of compounds included the polyphenols present in the extracts, with particular focus on the flavanone rutinosides hesperidin and eriocitrin, their respective aglycones hesperetin, and eriodictyol, as well as their derived phase-II conjugates (glucuronides, sulfates, sulfoglucuronides, etc.). The exact mass of each proposed compound was extracted using an extraction window of 0.01 m/z. The metabolites hesperetin 7-O-glucuronide, hesperetin 3′-O-glucuronide, hesperetin 3-O-sulfate, naringenin 4′-O-glucuronide, and naringenin 7′-O-glucuronide were quantified with their corresponding standards. […] The parent phenolic compounds were quantified with their corresponding standards. In the case of some relevant conjugated metabolites, which standards were not available (eriodictyol and homoeriodictyol conjugates), their quantification was achieved by using relative response factors (RRFs) as previously described. Briefly, RRFs are useful to check the different responses of metabolites in the mass spectrometer vs. their UV signal. While the ionization response of free vs. conjugated forms is usually very different, their UV signal response is quite similar. To this purpose, we injected in a HPLC-DAD-ESI-Q (MS) the plasma samples (n = 5) with the highest concentrations of those conjugated metabolites. Concentrations were calculated by integrating the area from their corresponding UV peaks and compared with the UV peak area of a known concentration of their corresponding available parent compounds (eriodictyol and homoeriodictyol). The concentrations calculated were used to compare the MS response for each conjugated-aglycone pair.

[3] = set-up: method as in PMID 28970059; conditions: eriocitrin vs. hesperidin ref 28; cited from earlier work
[4] = lemon extract (3.1 g, 260 mg eriocitrin)

Row | Molecule | Occurrence Plasma LE (number of volunteers in whom the metabolite was detected) [1] | Occurrence Plasma OE (number of volunteers in whom the metabolite was detected) [1] | Occurrence Urine LE (number of volunteers in whom the metabolite was detected) [2] | Occurrence Urine OE (number of volunteers in whom the metabolite was detected) [2] | Solubility [3] | AUC(0-t) [1] [µM·h] | Cmax [1] [nM] | Tmax [1] [h] | Urinary excretion F1 [2, 4] [µg/mg creatinine] | Urinary excretion Total F ([2]; lemon extract) [µg/mg creatinine] | Urinary excretion F2 ([2]; lemon extract) [µg/mg creatinine] | Urinary excretion F3 ([2]; lemon extract) [µg/mg creatinine] | Urinary excretion F4 ([2]; lemon extract) [µg/mg creatinine] | Urinary excretion F1 ([2]; orange extract (1.95 g, 260 mg hesperidin)) [µg/mg creatinine] | Urinary excretion Total F ([2]; orange extract) [µg/mg creatinine] | Urinary excretion F2 ([2]; orange extract) [µg/mg creatinine] | Urinary excretion F3 ([2]; orange extract) [µg/mg creatinine] | Urinary excretion F4 ([2]; orange extract) [µg/mg creatinine]
1 | COc1cc([C@@H]2CC(=O)c3c(O)cc(O)cc3O2)ccc1O [M16, Homoeriodictyol] | 15 | 1 | 12 | 1 | – | – | – | – | – | – | – | – | – | – | – | – | – | –
2 | COc1ccc([C@@H]2CC(=O)c3c(O)cc(O)cc3O2)cc1O [M17, Hesperetin] | 8 | 3 | 5 | 8 | – | – | – | – | – | – | – | – | – | – | – | – | – | –
3 | C[C@@H]1O[C@@H](OC[C@H]2O[C@@H](Oc3cc(O)c4c(c3)O[C@H](c3ccc(O)c(O)c3)CC4=O)[C@H](O)[C@@H](O)[C@@H]2O)[C@H](O)[C@H](O)[C@H]1O [eriocitrin, Eriocitrin] | – | – | – | – | higher solubility | – | – | – | – | – | – | – | – | – | – | – | – | –
4 | Eriodictyol sulfate [M13] | 16 | 10 | 16 | 12 | – | 6.12 ± 6.631 | 1710 ± 1510 | 5.7 ± 2.5 | 4.6 ± 5.0 | 32.6 ± 36.5 | 14.6 ± 17.3 | 11.9 ± 12.6 | 1.5 ± 1.5 | 0.02 ± 0.01 | 0.6 ± 0.9 | 0.1 ± 0.1 | 0.2 ± 0.4 | 0.3 ± 0.4
5 | Eriodictyol sulfoglucuronide [M9] | 15 | 0 | 5 | 0 | – | – | – | – | – | – | – | – | – | – | – | – | – | –
6 | Hesperetin sulfoglucuronide [M11] | 0 | 8 | 0 | 7 | – | – | – | – | – | – | – | – | – | – | – | – | – | –
7 | Homoeriodictyol glucuronide [M6] | 16 | 3 | 16 | 3 | – | 3.133 ± 4.17 | 780 ± 863 | 6.1 ± 2.4 | 13.9 ± 16.2 | 106 ± 171 | 48.1 ± 90.0 | 37.2 ± 56.9 | 6.8 ± 8.0 | – | – | – | – | –
8 | Homoeriodictyol sulfate [M10] | 16 | 3 | 16 | 0 | – | 1.778 ± 2.257 | 479 ± 524 | 6.5 ± 2.2 | 3.8 ± 3.2 | – | 4.0 ± 5.5 | 3.6 ± 4.1 | 0.5 ± 0.4 | – | – | – | – | –
